Data on 18 molecules can be found in patent US7312233B2, “Amide derivatives as ion-channel ligands and pharmaceutical compositions and methods of using the same” (Renovis, Inc., priority 2005, dated 2007).

The target of experiment [1] is T1, hVR1 (Homo sapiens, UniProt Q8NER1).
T1 construct: expressed in transfected cells; host or cells: T-REx HEK 293 (Invitrogen), pcDNA5/TO vector
As to the kind of experiment: Calcium uptake assay (Fura2, Flex Station) in HEK 293 cells expressing hVR1. It counts as cell-based. As to conditions: inhibition of agonist-induced calcium influx; for % Inhib. @ 0.3 μM: 0.3 μM compound; for inhibition at 0.3 µM: HEK293, 0.3 μM compound, read-out: % Inhib. @ 0.3 μM.

Experiment [2] addresses T2, HsVR1 (Homo sapiens, UniProt Q8NER1).
T2 construct: expressed in transfected cells; host or cells: Xenopus oocytes injected with HsVR1 RNA
The experiment can be described thus: Two-electrode voltage clamp recording (OpusXpress) of capsaicin induced VR1 current in Xenopus oocytes injected with HsVR1 RNA. It counts as cell-based. As for the experimental part: Oocytes are prepared by surgically removing Xenopus ovaries obtained from NASCO. The oocytes are isolated by enzymatic dissociation using collagenase (Worthington, 2 mg/ml). Oocytes are then individually injected with HsVR1 RNA. Each oocyte receives 64 nl of RNA solution in water at a concentration of 0.5 μg/μl. Injected oocytes are stored in standard oocyte incubation solution, ND96, containing (in mM) 96 NaCl, 2 KCl, 1 MgCl2, 1.8 CaCl2 and 50 μg/ml Gentamicin at 16° C. […] Eight oocytes are placed in the recording chambers. Each oocyte is impaled by 2 glass electrodes having resistances of 0.5 to 1 MOhm when filled with a 3 M KCl solution. Electrode advancement and oocyte impalement are under software control (OpusXpress® 1.1 Molecular Devices Corporation). The solutions are prepared in 96 well plates and robotically pipetted into the oocyte recording chambers by an 8 channel pipettor. Test solution delivery to the oocytes during the experiment is also under software control. […] The standard test concentrations for the compounds tested here usually range from 0.3 to 2000 nM. Quantitative measurement of VR1 current block is done by calculating the area under the curve described by the inward current. […] These points are then plotted on a logarithmic scale and fitted by a Hill function. The IC50 is calculated from the resulting Hill fit.
On the technique in general: Two-electrode voltage clamp is typically applied to oocytes expressing channels or transporters.

T1 sequence (Q8NER1 whole entry): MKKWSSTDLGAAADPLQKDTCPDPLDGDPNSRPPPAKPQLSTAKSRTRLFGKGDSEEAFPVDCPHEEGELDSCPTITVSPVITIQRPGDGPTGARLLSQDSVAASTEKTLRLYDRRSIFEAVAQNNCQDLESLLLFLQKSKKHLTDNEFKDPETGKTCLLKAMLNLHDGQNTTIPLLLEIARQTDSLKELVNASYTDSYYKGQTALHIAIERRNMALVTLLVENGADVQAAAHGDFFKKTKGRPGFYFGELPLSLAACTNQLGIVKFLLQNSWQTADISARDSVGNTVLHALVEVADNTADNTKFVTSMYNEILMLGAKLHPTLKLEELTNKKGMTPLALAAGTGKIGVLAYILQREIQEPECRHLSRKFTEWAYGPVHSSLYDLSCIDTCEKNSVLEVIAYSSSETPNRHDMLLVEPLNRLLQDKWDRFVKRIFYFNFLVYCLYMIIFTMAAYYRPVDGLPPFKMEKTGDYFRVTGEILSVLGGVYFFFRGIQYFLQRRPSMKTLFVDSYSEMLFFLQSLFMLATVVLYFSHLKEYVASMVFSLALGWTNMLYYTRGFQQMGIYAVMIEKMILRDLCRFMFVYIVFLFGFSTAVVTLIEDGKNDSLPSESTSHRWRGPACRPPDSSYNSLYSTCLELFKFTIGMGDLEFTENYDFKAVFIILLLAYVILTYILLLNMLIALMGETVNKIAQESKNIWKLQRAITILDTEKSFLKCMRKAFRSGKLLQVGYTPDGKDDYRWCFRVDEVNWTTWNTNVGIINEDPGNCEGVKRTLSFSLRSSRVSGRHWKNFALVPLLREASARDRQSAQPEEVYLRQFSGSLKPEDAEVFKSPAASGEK
T2 sequence (Q8NER1 whole entry): as above

On to `Cc1cc(C2CC2C(F)(F)F)ccc1C(=O)Nc1cnc2ccccc2c1` (single isomer, unassigned) [Compound 20, 2-methyl-N-(quinolin-3-yl)-4-(2-(trifluoromethyl)cyclopropyl)benzamide], for which the “% Inhib. @ 0.3 μM” value in experiment [1] is “++ (compound exhibited 25-50% inhibition of calcium ion)”.

Take `Cc1cc(C2CC2C(F)(F)F)ccc1C(=O)Nc1cnc2ccccc2c1` (single isomer, unassigned) [Compound 18, 2-methyl-N-(quinolin-3-yl)-4-(2-(trifluoromethyl)cyclopropyl)benzamide]: the “% Inhib. @ 0.3 μM” value in experiment [1] is reported as “+++ (compound exhibited 50-75% inhibition of calcium ion influx)”.

With `Cc1cc(C2CC2C(F)(F)F)ccc1C(=O)Nc1cnc2ccccc2c1` (single isomer, unassigned) [Compound 19, 2-methyl-N-(quinolin-3-yl)-4-(2-(trifluoromethyl)cyclopropyl)benzamide], in experiment [1], the “% Inhib. @ 0.3 μM” value is listed as “+ (compound exhibited 0-25% inhibition of calcium ion influx)”.

Consider `Cc1nc2cc(NC(=O)c3ccc(C4CC4(Cl)Cl)cc3)ccc2s1` (centres unmarked) [Compound 6, 4-(2,2-dichlorocyclopropyl)-N-(2-methylbenzo[d]thiazol-5-yl)benzamide], for which, in experiment [1], the inhibition at 0.3 µM was more than 75%.

In the case of `COc1cccc(NC(=O)c2ccc(C3CC3)cc2C)c1` [Compound 1, 4-cyclopropyl-N-(3-methoxyphenyl)-2-methylbenzamide], the inhibition at 0.3 µM in experiment [1] was 50 to 75%.

As to `Cc1cc(C2CC2C(F)(F)F)ccc1C(=O)Nc1ccc2sc(CO)nc2c1` (single isomer, unassigned) [Compound 15], the inhibition at 0.3 µM in experiment [1] is more than 75%.

In the case of `Cc1cc(C2CC2C(F)(F)F)ccc1C(=O)Nc1ccc2c(c1)OCCO2` (single isomer, unassigned) [Compound 8, N-(2,3-dihydrobenzo[b][1,4]dioxin-6-yl)-2-methyl-4-(2-(trifluoromethyl)cyclopropyl)benzamide], in experiment [1], the “% Inhib. @ 0.3 μM” value was “+ (compound exhibited 0-25% inhibition of calcium ion influx)”.

Take `COc1cccc(NC(=O)c2ccc(C3CC3C(F)(F)F)cc2C)c1` (single isomer, unassigned) [Compound 16, N-(3-methoxyphenyl)-2-methyl-4-(2-(trifluoromethyl)cyclopropyl)benzamide]: the inhibition at 0.3 µM in experiment [1] was 25 to 50%.

On to `Cc1cc(C2CC2)ccc1C(=O)Nc1cnc2ccccc2c1` [Compound 5, 4-cyclopropyl-2-methyl-N-(quinolin-3-yl)benzamide], for which the inhibition at 0.3 µM in experiment [1] was more than 75%.

In the case of `Cc1cc(C2CC2C(F)(F)F)ccc1C(=O)Nc1cnc2ccccc2c1` (single isomer, unassigned) [Compound 17, 2-methyl-N-(quinolin-3-yl)-4-(2-(trifluoromethyl)cyclopropyl)benzamide], in experiment [1], the “% Inhib. @ 0.3 μM” value was “+++ (compound exhibited 50-75% inhibition of calcium ion influx)”.

On to `O=C(Nc1cnc2ccccc2c1)c1ccc(C2CC2(Cl)Cl)cc1` (centres unmarked) [Compound 3, 4-(2,2-dichlorocyclopropyl)-N-(quinolin-3-yl)benzamide], for which the inhibition at 0.3 µM in experiment [1] fell in the range of 50 to 75%.

Consider `COc1cccc(NC(=O)c2ccc(C3CC3(Cl)Cl)cc2)c1` (centres unmarked) [Compound 4, 4-(2,2-dichlorocyclopropyl)-N-(3-methoxyphenyl)benzamide], for which the inhibition at 0.3 µM in experiment [1] is more than 75%.

Regarding `Cc1nc2cc(NC(=O)c3ccc(C4CC4)cc3C)ccc2s1` [Compound 7, 4-cyclopropyl-2-methyl-N-(2-methylbenzo[d]thiazol-5-yl)benzamide], the IC50 (usually the point on the concentration scale where inhibition reaches its midpoint) in experiment [2] (250 nM capsaicin induced VR1 current, n=5 oocytes, FIG. 1) was determined as 178 ± 26 nM; in experiment [2] (+/- standard error measurement, FIG. 1 legend), 177 nM. Further, the inhibition at 0.3 µM in experiment [1] is more than 75%.

Turning to `COc1ccc(NC(=O)c2ccc(C3CC3C(F)(F)F)cc2C)cn1` (single isomer, unassigned) [Compound 10, N-(6-methoxypyridin-3-yl)-2-methyl-4-(2-(trifluoromethyl)cyclopropyl)benzamide], the inhibition at 0.3 µM in experiment [1] lay within 25 to 50%.

In the case of `Cc1nc2cc(NC(=O)c3ccc(C4CC4C(F)(F)F)cc3C)ccc2s1` (single isomer, unassigned) [Compound 11, 2-methyl-N-(2-methylbenzo[d]thiazol-5-yl)-4-(2-(trifluoromethyl)cyclopropyl)benzamide], in experiment [1], the inhibition at 0.3 µM is more than 75%.

Turning to `Cc1cc(C2CC2C(F)(F)F)ccc1C(=O)Nc1cccc2c1CCCC2` (single isomer, unassigned) [Compound 9, 2-methyl-N-(5,6,7,8-tetrahydronaphthalen-1-yl)-4-(2-(trifluoromethyl)cyclopropyl)benzamide], the inhibition at 0.3 µM in experiment [1] is 0 to 25%.

For the molecule `Cc1cc(C2CC2C(F)(F)F)ccc1C(=O)Nc1ccc2c(c1)OCCO2` (single isomer, unassigned) [Compound 13, N-(2,3-dihydrobenzo[b][1,4]dioxin-6-yl)-2-methyl-4-(2-(trifluoromethyl)cyclopropyl)benzamide], the “% Inhib. @ 0.3 μM” value in experiment [1] was “+++ (compound exhibited 50-75% inhibition of calcium ion influx)”.

Regarding `Cc1cc(C2CC2)ccc1C(=O)Nc1ccc(C(C)(C)C)cc1` [Compound 2, N-(4-tert-butylphenyl)-4-cyclopropyl-2-methylbenzamide], the inhibition at 0.3 µM in experiment [1] lay within 0 to 25%.
